The target in one assay is T1, LmrR_A92E (Lactococcus cremoris, UniProt A2RI36, A92E).
T1 sequence (A2RI36 1-116 A92E): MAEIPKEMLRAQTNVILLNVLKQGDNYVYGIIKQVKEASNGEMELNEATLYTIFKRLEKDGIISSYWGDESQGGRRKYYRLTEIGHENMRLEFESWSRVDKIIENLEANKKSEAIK
In words: binding affinity.

The target of a further assay is T2, LmrR A92Q (Lactococcus cremoris, UniProt A2RI36, A92Q).
T2 sequence (A2RI36 1-116 A92Q): T1 sequence (A2RI36 1-116 A92E) with E92Q
Briefly: binding affinity.

Changes are numbered by the printed parent chain.

A word on the Kd: it is the concentration at which binding is half-saturated. Low values mean tighter binding, high ones weaker binding.

As for `[Cu+2].c1cnc2c(c1)ccc1cccnc12` [Cu(II)-phen], the equilibrium dissociation constant (Kd) on LmrR_A92E is 0.065 ± 0.019 µM; on LmrR A92Q, 0.103 ± 0.041 µM.

The record behind these values is paper PMC7574625 (ACS Catalysis, 2020).
